# Results taken from ChEMBL document CHEMBL4665849, “Synthesis and biological evaluation of imidazoline derivatives as potential CNS and CVS agents” (Bioorg Med Chem Lett, 2020).
# Active and inactive are the calls of the source. The rule behind the calls is not given here.
# Legend:
# [1] = Toxicity in mouse; assay type: organism-based; conditions: in vivo, read-out: ALD50
# Mus musculus [2] = assay: Analgesic activity in mouse assessed as maximum change in tail flick latency time at 10 mg/kg (reference value: 0.7 secs); assay type: functional
# Mus musculus [3] = assay: Hypotensive activity in mouse assessed as decrease in delayed blood pressure at 2.5 mg/kg; assay type: functional
# Mus musculus [4] = assay: Hypotensive activity in mouse assessed as decrease in immediate blood pressure at 2.5 mg/kg; assay type: functional
# Mus musculus [5] = assay: Antiaggressive activity in mouse assessed as reduction in foot shock induced fighting behavior by measuring fighting count at 10 mg/kg, ip (reference value: 6.6 to 24.3 counts); assay type: functional
# Mus musculus [6] = assay: Hypotensive activity in mouse assessed as decrease in heart rate at 2.5 mg/kg; assay type: functional
# Mus musculus [7] = assay: Analgesic activity in mouse assessed as time duration at which maximum change in tail flick latency occurs at 10 mg/kg (reference value: 60 mins); assay type: functional
# Mus musculus [8] = assay: Antidepressant activity in mouse assessed as total mean swimming time time at 5 mg/kg, ip (reference value: 2.08 to 3.12 min); assay type: functional
# Mus musculus [9] = assay: Modulation of cardiovascular activity in mouse assessed as inhibition of carotid occlusion-induced pressure response at 2.5 mg/kg; assay type: functional, organism-based
# Mus musculus [10] = assay: Modulation of cardiovascular activity in mouse assessed as potentiation of norepinephrine induced pressure response at 2.5 mg/kg; assay type: functional, organism-based
# Mus musculus [11] = assay: Modulation of cardiovascular activity in mouse assessed as inhibition of norepinephrine induced pressure response at 2.5 mg/kg; assay type: functional, organism-based
# Mus musculus [12] = species on record: Mus musculus; conditions: dose 10.0 mg/kg
# Description: Modulation of cardiovascular activity in mouse assessed as inhibition of carotid occlusion-induced pressure response at 10 mg/kg
# Mus musculus [13] = species on record: Mus musculus; conditions: dose 10.0 mg/kg; remark: listed apart in the source
# Description: Modulation of cardiovascular activity in mouse assessed as inhibition of norepinephrine induced pressure response at 10 mg/kg
# Mus musculus [14] = assay: Antidepressant activity in mouse assessed as total mean swimming time at 15 mg/kg (reference value: 2.98 min); assay type: functional
Compound,LD50 [1] [mg/kg],Time (Mus musculus [2]) [s],Activity (Mus musculus [3]),Activity (Mus musculus [4]),Activity (Mus musculus [5]) [Counts],Activity (Mus musculus [6]),Time (Mus musculus [7]) [min],Time (Mus musculus [8]) [min],inhibition (Mus musculus [9]),Activity (Mus musculus [10]),inhibition (Mus musculus [11]),inhibition (Mus musculus [12]),inhibition (Mus musculus [13]),Time (Mus musculus [14]) [min]
CC1=N/C(=C\c2ccccc2)C(=O)N1c1ccc(OCC2CO2)cc1 (configuration not stated),> 500,8.5,45 mmHg,25 mmHg,6.3,21 bpm,60,1.68,Active,Active,,,,
CC1=N/C(=C\c2ccc(N(C)C)cc2)C(=O)O1,> 500,1.8,15 mmHg,inactive,7.3,inactive,60,1.5,Active,Active,,,,
CC1=N/C(=C\c2ccc(N(C)C)cc2)C(=O)N1c1ccc(OCC2CO2)cc1 (configuration not stated),> 500,3.8,28 mmHg,60 mmHg,10.3,24 bpm,30,1.31,Active,,Active,,,
CC1=N/C(=C\c2ccc(N(C)C)cc2)C(=O)N1c1ccc(O)cc1,> 500,0.1,50 mmHg,25 mmHg,1.6,27 bpm,30,0.42,Active,Active,,,,
O=C1/C(=C/c2ccoc2)N=C(CCN2CCOCC2)N1c1ccc(O)cc1,> 1000,5.2,20 mmHg,35 mmHg,6.6,18 bpm,30,1.3,Active,Active,,,,
CC1=N/C(=C\c2ccc(N(C)C)cc2)C(=O)N1c1ccc(OCC(O)CNc2ccc(Cl)cc2)cc1 (configuration not stated),> 500,0.9,30 mmHg,15 mmHg,4.8,21 bpm,30,0.84,Active,Active,,,,
CC1=N/C(=C\c2ccoc2)C(=O)N1c1ccc(OCC2CO2)cc1 (configuration not stated),> 1000,6.4,20 mmHg,30 mmHg,5,6 bpm,60,1.14,Active,Active,,,,
O=C1/C(=C/c2ccccc2)N=C(CCN2CCOCC2)N1c1ccc(O)cc1,> 500,4,15 mmHg,35 mmHg,21.6,15 bpm,60,0.84,Active,inactive,inactive,,,
Clc1cccc(Cl)c1NC1=NCCN1,,,,,,,,,,,,Active,Active,
CC1=N/C(=C\c2ccoc2)C(=O)N1c1ccc(O)cc1,> 500,1.3,20 mmHg,20 mmHg,4.6,18 bpm,60,2.52,inactive,inactive,inactive,,,
CC1=N/C(=C\c2ccoc2)C(=O)N1c1ccc(OCC(O)CNc2ccc(Cl)cc2)cc1 (configuration not stated),> 500,6.9,20 mmHg,25 mmHg,10.6,27 bpm,30,2.83,inactive,inactive,inactive,,,
CC1=N/C(=C\c2ccccc2)C(=O)O1,> 500,1.3,40 mmHg,25 mmHg,6,36 bpm,60,1.72,Active,Active,,,,
CC1=N/C(=C\c2ccccc2)C(=O)N1c1ccc(O)cc1,> 200,6.4,70 mmHg,15 mmHg,8.6,12 bpm,60,2.74,Active,,Active,,,
CN(C)CCCN1c2ccccc2CCc2ccccc21 [IMIPRAMINE],,,,,,,,,,,,,,2.33
CN(C)c1ccc(/C=C2\N=C(CCN3CCOCC3)N(c3ccc(O)cc3)C2=O)cc1,> 500,2.6,37 mmHg,15 mmHg,4.5,30 bpm,60,0.5,Active,Active,,,,
CC1=N/C(=C\c2ccccc2)C(=O)N1c1ccc(OCC(O)CNc2ccc(Cl)cc2)cc1 (configuration not stated),> 200,4.5,17 mmHg,50 mmHg,11.3,6 bpm,60,1.6,Active,Active,,,,
CC1=N/C(=C\c2ccoc2)C(=O)O1,> 500,8.8,inactive,inactive,6,inactive,15,2.64,inactive,inactive,inactive,,,
